Experimental data published in ChEMBL document CHEMBL5518244, “Design, Synthesis, and Biological Evaluation of a Novel NIK Inhibitor with Anti-Inflammatory and Hepatoprotective Effects for Sepsis Treatment” (J Med Chem, 2024).
Activity calls are given as the source filed them. The rule behind the calls is not given here.

Assays:
Macrophage = experiment: Anti-inflammatory activity in mouse macrophages extracted from abdominal activity assessed as inhibition of LPS-induced nitric oxide production at 1 uM measured after 22 hrs by Griess reagent assay relative to control; format: functional, cell-based
[1] = molecular target: T1, Mitogen-activated protein kinase kinase kinase 14 (Homo sapiens, UniProt Q99558); experiment: Inhibition of NIK (unknown origin) expressed in COS-7 cells co-expressing NF-KappaB luciferase reporter assessed as suppression of luciferase reporter measured after 24 by beta-Gal activity assay; format: cell-based
[2] = AUCinf in C57BL/6J mouse at 10 mg/kg, po measured upto 24 hrs by LC-MS/MS analysis; format: ADME, organism-based; details: in vivo
[3] = AUClast in C57BL/6J mouse at 10 mg/kg, iv measured upto 24 hrs by LC-MS/MS analysis; format: ADME, organism-based; details: in vivo
[4] = Half life in C57BL/6J mouse at 10 mg/kg, po measured upto 24 hrs by LC-MS/MS analysis; format: ADME, organism-based; details: in vivo
[5] = Cmax in C57BL/6J mouse at 10 mg/kg, po measured upto 24 hrs by LC-MS/MS analysis; format: ADME, organism-based; details: in vivo
[6] = AUClast in C57BL/6J mouse at 10 mg/kg, po measured upto 24 hrs by LC-MS/MS analysis; format: ADME, organism-based; details: in vivo
COS-7 [7] = experiment: Cytotoxicity against African green monkey COS-7 cells assessed as cell viability at 5 uM by CCK8 assay; format: toxicity, cell-based; details: chlorocebus aethiops, cos-7, 5 µM
Mus musculus [8] = experiment: Antisepsis effect in LPS-induced sepsis C57BL/6J mouse model assessed as prevention of liver injury by measuring decrease in serum ALT level at 10 mg/kg, ip measured after 7 days by biochemical assay; format: functional, organism-based; details: time 7.0 day
[9] = molecular target: Mitogen-activated protein kinase 8 (Homo sapiens, UniProt P45983); experiment: Inhibition of JNK1 (unknown origin) by ADP-Glo Kinase assay
Mus musculus [10] = experiment: Antisepsis effect in LPS-induced sepsis C57BL/6J mouse model assessed as protection by measuring mouse survival at 10 mg/kg, ip measured after 7 days relative to control; format: functional, organism-based; details: time 7.0 day
RAW264.7 [11] = experiment: Cytotoxicity against mouse RAW264.7 cells assessed as cell viability at 5 uM by CCK8 assay; format: toxicity, cell-based; details: raw264.7, 5 µM
Mus musculus [12] = experiment: Antisepsis effect in LPS-induced sepsis C57BL/6J mouse model assessed as decrease in serum TNFalpha level at 10 mg/kg, ip measured after 7 days by ELISA; format: functional, organism-based; details: time 7.0 day
[13] = molecular target: T1, Mitogen-activated protein kinase kinase kinase 14; experiment: Inhibition of NIK (unknown origin) incubated 30 to 60 mins by ADP-Glo Kinase
Mus musculus [14] = experiment: Antisepsis effect in LPS-induced sepsis C57BL/6J mouse model assessed as prevention of liver injury by measuring decrease in serum AKP level at 10 mg/kg, ip measured after 7 days by biochemical assay; format: functional, organism-based; details: time 7.0 day
[15] = Half life in C57BL/6J mouse at 10 mg/kg, iv measured upto 24 hrs by LC-MS/MS analysis; format: ADME, organism-based; details: in vivo
Mus musculus [16] = experiment: Antisepsis effect in LPS-induced sepsis C57BL/6J mouse model assessed as decrease in serum CXCL-12 level at 10 mg/kg, ip measured after 7 days by ELISA; format: functional, organism-based; details: time 7.0 day
Mus musculus [17] = experiment: Antisepsis effect in LPS-induced sepsis C57BL/6J mouse model assessed as prevention of kidney injury at 10 mg/kg, ip measured after 7 days by hematoxylin and eosin staining based assay; format: functional, organism-based; details: time 7.0 day
Mus musculus [18] = experiment: Inhibition of noncanonical NF-kappaB signaling pathway LPS-induced sepsis C57BL/6J mouse model assessed as increase in p100 protein level at 10 mg/kg, ip measured after 7 days by immunoblotting analysis; format: functional, organism-based; details: time 7.0 day
Mus musculus [19] = experiment: Inhibition of noncanonical NF-kappaB signaling pathway LPS-induced sepsis C57BL/6J mouse model assessed as decrease in p52 protein level at 10 mg/kg, ip measured after 7 days by immunoblotting analysis; format: functional, organism-based; details: time 7.0 day
[20] = AUCinf in C57BL/6J mouse at 10 mg/kg, iv measured upto 24 hrs by LC-MS/MS analysis; format: ADME, organism-based; details: in vivo
Mus musculus [21] = experiment: Antisepsis effect in LPS-induced sepsis C57BL/6J mouse model assessed as decrease in serum IL-1beta level at 10 mg/kg, ip measured after 7 days by ELISA; format: functional, organism-based; details: time 7.0 day
Mus musculus [22] = experiment: Antisepsis effect in LPS-induced sepsis C57BL/6J mouse model assessed as decrease in serum IL-6 level at 10 mg/kg, ip measured after 7 days by ELISA; format: functional, organism-based; details: time 7.0 day
[23] = Metabolic stability in mouse liver microsomes assessed as half life at 1 uM measured upto 60 mins by LC-MS/MS analysis; format: ADME, Microsome
RAW264.7 [24] = experiment: Anti-inflammatory activity in mouse RAW264.7 cells assessed as suppression of LPS/CD40-induced TNFalpha secretion at 5 uM pretreated for 2 hrs followed stimulated with LPS/CD40 for 22 hrs by ELISA; format: functional, cell-based; details: time 24.0 hrs
Mus musculus [25] = experiment: Antisepsis effect in LPS-induced sepsis C57BL/6J mouse model assessed as prevention of necrosis in liver tissue at 10 mg/kg, ip measured after 7 days by hematoxylin and eosin staining based assay; format: functional, organism-based; details: time 7.0 day
[26] = Metabolic stability in mouse liver microsomes assessed as intrinsic clearance at 1 uM measured upto 60 mins by LC-MS/MS analysis; format: ADME, Microsome; details: read-out: CLH
Mus musculus [27] = experiment: Antisepsis effect in LPS-induced sepsis C57BL/6J mouse model assessed as prevention of liver injury by measuring decrease in serum AST level at 10 mg/kg, ip measured after 7 days by biochemical assay; format: functional, organism-based; details: time 7.0 day
RAW264.7 [28] = experiment: Anti-inflammatory activity in mouse RAW264.7 cells assessed as suppression of LPS/CD40-induced IL-6 secretion at 5 uM pretreated for 2 hrs followed stimulated with LPS/CD40 for 22 hrs by ELISA; format: functional, cell-based; details: time 24.0 hrs
Mus musculus [29] = experiment: Antisepsis effect in LPS-induced sepsis C57BL/6J mouse model assessed as decrease in serum IFN-gamma level at 10 mg/kg, ip measured after 7 days by ELISA; format: functional, organism-based; details: time 7.0 day
RAW264.7 [30] = experiment: Cytotoxicity against mouse RAW264.7 cells assessed as cell viability at 1 uM by CCK8 assay; format: toxicity, cell-based; details: raw264.7, 1 µM
[31] = Clearance in C57BL/6J mouse at 10 mg/kg, iv measured upto 24 hrs by LC-MS/MS analysis; format: ADME, organism-based; details: in vivo
[32] = Tmax in C57BL/6J mouse at 10 mg/kg, po measured upto 24 hrs by LC-MS/MS analysis; format: ADME, organism-based; details: in vivo
RAW264.7 [33] = experiment: Anti-inflammatory activity in mouse RAW264.7 cells assessed as suppression of LPS/CD40-induced IL-1beta secretion at 5 uM pretreated for 2 hrs followed stimulated with LPS/CD40 for 22 hrs by ELISA; format: functional, cell-based; details: time 24.0 hrs
COS-7 [34] = experiment: Cytotoxicity against African green monkey COS-7 cells assessed as cell viability at 1 uM by CCK8 assay; format: toxicity, cell-based; details: chlorocebus aethiops, cos-7, 1 µM
Mus musculus [35] = experiment: Antisepsis effect in LPS-induced sepsis C57BL/6J mouse model assessed as prevention of infiltration of inflammatory cells at 10 mg/kg, ip measured after 7 days by immunohistochemistry staining of F4/80 imaging based assay; format: functional, organism-based; details: time 7.0 day
Mus musculus [36] = experiment: Antisepsis effect in LPS-induced sepsis C57BL/6J mouse model assessed as prevention of tubular injury at 10 mg/kg, ip measured after 7 days by hematoxylin and eosin staining based assay; format: functional, organism-based; details: time 7.0 day
Mus musculus [37] = experiment: Antisepsis effect in LPS-induced sepsis C57BL/6J mouse model assessed as protection by measuring mouse survival at 10 mg/kg, ip measured at 48 hrs relative to control; format: functional, organism-based
[38] = Metabolic stability in rat liver microsomes assessed as half life at 1 uM measured upto 60 mins by LC-MS/MS analysis; format: ADME, Microsome
[39] = molecular target: AMP-activated protein kinase (AMPK) alpha-1/beta-1/gamma-1 (Homo sapiens, UniProt P54619+Q13131+Q9Y478); experiment: Inhibition of AMPKalpha1/beta1/gamma1 (unknown origin) by ADP-Glo Kinase assay; format: protein-complex assay
[40] = Metabolic stability in rat liver microsomes assessed as intrinsic clearance at 1 uM measured upto 60 mins by LC-MS/MS analysis; format: ADME, Microsome; details: read-out: CLH
[41] = Initial plasma concentration in C57BL/6J mouse at 10 mg/kg, iv measured upto 24 hrs by LC-MS/MS analysis; format: ADME, organism-based
Mus musculus [42] = experiment: Antisepsis effect in LPS-induced sepsis C57BL/6J mouse model assessed as prevention of lung injury at 10 mg/kg, ip measured after 7 days by hematoxylin and eosin staining based assay; format: functional, organism-based; details: time 7.0 day

T1 sequence (Q99558 whole entry): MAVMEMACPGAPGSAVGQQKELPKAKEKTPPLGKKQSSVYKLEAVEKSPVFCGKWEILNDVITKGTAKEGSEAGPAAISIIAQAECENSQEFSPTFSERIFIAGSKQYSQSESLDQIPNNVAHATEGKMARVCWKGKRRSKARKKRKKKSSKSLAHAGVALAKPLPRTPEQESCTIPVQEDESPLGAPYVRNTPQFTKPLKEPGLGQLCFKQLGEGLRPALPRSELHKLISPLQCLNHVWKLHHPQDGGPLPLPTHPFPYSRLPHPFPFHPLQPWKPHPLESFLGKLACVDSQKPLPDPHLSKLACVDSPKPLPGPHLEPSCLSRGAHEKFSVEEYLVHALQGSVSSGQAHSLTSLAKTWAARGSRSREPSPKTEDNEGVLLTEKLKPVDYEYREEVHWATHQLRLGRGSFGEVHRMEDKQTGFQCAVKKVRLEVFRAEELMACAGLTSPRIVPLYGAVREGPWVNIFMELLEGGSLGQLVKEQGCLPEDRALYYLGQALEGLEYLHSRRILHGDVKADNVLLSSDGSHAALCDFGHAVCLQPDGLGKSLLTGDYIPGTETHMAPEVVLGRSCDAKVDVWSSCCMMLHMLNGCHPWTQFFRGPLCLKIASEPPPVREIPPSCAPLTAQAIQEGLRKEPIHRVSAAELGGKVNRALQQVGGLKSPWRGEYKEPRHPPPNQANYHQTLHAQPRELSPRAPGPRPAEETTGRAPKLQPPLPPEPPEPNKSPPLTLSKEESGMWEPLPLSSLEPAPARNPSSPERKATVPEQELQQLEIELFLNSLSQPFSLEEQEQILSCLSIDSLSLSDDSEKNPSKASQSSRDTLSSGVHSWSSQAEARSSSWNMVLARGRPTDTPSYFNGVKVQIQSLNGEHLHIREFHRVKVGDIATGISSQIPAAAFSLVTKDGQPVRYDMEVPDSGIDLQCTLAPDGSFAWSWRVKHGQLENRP
Chain of AMP-activated protein kinase (AMPK) alpha-1/beta-1/gamma-1 (P54619 whole entry): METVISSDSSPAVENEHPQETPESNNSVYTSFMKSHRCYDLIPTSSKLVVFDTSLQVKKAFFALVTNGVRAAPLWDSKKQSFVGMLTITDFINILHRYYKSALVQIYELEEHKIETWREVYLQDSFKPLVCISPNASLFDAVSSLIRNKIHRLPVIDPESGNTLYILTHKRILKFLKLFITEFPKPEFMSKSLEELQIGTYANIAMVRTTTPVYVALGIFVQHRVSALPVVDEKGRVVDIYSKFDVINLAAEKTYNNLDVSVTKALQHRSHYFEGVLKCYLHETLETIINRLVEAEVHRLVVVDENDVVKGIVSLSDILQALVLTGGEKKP
Chain of AMP-activated protein kinase (AMPK) alpha-1/beta-1/gamma-1 (Q9Y478 whole entry): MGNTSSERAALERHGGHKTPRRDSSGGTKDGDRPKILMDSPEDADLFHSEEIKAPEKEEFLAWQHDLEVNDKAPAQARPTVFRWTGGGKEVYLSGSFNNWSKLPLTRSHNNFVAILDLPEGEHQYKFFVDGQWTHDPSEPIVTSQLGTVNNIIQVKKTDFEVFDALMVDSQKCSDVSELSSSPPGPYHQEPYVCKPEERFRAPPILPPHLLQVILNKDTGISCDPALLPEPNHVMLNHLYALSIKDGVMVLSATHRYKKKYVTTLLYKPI
Chain of AMP-activated protein kinase (AMPK) alpha-1/beta-1/gamma-1 (Q13131 whole entry): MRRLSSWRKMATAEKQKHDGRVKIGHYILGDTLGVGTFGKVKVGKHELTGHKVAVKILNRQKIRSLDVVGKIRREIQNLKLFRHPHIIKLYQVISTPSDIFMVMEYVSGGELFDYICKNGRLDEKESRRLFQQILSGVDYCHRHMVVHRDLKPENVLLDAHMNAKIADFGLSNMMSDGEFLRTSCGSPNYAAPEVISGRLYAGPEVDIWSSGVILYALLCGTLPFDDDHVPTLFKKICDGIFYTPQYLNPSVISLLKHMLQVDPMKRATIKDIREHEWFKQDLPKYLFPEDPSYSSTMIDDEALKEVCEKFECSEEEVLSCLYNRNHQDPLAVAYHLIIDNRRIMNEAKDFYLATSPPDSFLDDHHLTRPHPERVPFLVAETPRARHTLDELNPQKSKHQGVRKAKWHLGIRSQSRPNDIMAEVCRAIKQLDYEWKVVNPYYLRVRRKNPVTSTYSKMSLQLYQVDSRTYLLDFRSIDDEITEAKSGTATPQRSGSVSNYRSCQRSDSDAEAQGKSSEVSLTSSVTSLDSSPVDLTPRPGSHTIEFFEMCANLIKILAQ
Chain of Mitogen-activated protein kinase 8 (P45983 whole entry): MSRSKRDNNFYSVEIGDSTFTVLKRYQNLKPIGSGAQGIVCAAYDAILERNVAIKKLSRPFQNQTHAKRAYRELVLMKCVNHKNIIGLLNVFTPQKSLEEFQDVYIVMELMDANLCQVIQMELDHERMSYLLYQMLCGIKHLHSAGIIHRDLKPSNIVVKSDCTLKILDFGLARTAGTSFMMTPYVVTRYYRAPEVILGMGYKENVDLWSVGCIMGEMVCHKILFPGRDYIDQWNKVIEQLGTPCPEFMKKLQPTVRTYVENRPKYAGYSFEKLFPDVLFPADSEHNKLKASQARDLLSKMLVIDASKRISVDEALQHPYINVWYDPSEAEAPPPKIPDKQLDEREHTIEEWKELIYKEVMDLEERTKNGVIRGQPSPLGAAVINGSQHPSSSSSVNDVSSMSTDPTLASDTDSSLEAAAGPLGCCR

COc1cc(Nc2nccc(N3CCCn4nc(C#C[C@@](C)(O)c5nccs5)cc43)n2)cc(OC)c1
IC50 (Macrophage): 78.1 µM
IC50 [1]: 1190 nM
AUC(0-inf) [2]: 2550 ng·h/mL
AUC(0-t) at 24 h [3]: 3020 ng·h/mL
half-life [4]: 136 min
Cmax [5]: 1280 ng/mL
AUC(0-t) at 24 h [6]: 2520 ng·h/mL
Activity (COS-7 [7]): Non-Toxic
Activity (Mus musculus [8]): Active
IC50 [9]: 541 µM
Activity (Mus musculus [10]): Active
Activity (RAW264.7 [11]): Non-Toxic
Activity (Mus musculus [12]): Active
IC50 [13]: 1.27 nM
Activity (Mus musculus [14]): Active
half-life [15]: 44.5 min
Activity (Mus musculus [16]): Active
Activity (Mus musculus [17]): Active
Activity (Mus musculus [18]): Active
Activity (Mus musculus [19]): Active
AUC(0-inf) [20]: 3020 ng·h/mL
Activity (Mus musculus [21]): Active
Activity (Mus musculus [22]): Active
half-life at 1 µM [23]: 19.5 min
Activity (RAW264.7 [24]): Active
Activity (Mus musculus [25]): Active
microsomal CLint at 1 µM [26]: 71 µL/min/mg
Activity (Mus musculus [27]): Active
Activity (RAW264.7 [28]): Active
Activity (Mus musculus [29]): Active
Activity (RAW264.7 [30]): Non-Toxic
clearance [31]: 56.2 mL/min/kg
Tmax [32]: 30 min
Activity (RAW264.7 [33]): Active
Activity (COS-7 [34]): Non-Toxic
Activity (Mus musculus [35]): Active
Activity (Mus musculus [36]): Active
Activity (Mus musculus [37]): Active
half-life at 1 µM [38]: 25.9 min
IC50 [39]: 288 µM
microsomal CLint at 1 µM [40]: 53.6 µL/min/mg
C0 at 24 h [41]: 5060 ng/mL
Activity (Mus musculus [42]): Active
